Where no end group is shown, it is not given here.
Columns and labels:
[1] = test system: recombinant fragment of rat NG2 (NG2ECΔ3); test: Biopanning of linear decapeptide phage library on NG2-coated wells; type: binding; details: for selection/enrichment of NG2-binding sequences in in vitro panning: five successive rounds on NG2-coated wells
Text: To identify peptide motifs capable of interacting with NG2, recombinant NG2 fragments consisting of the N-terminal two-thirds of the extracellular domain of NG2 proteoglycan were generated. Briefly, a recombinant fragment of rat NG2 consisting of the N-terminal two-thirds of the extracellular domain (NG2ECΔ3) was purified from transfected human embryonic kidney 293 cells as described (Tillet et al., J. Biol. Chem. 272:10769-10776 (1997)). Recombinant NG2 diluted in phosphate buffered saline (PBS) (2 μg NG2/well) was coated onto microtiter wells overnight at 4° C. Wells were blocked with 2% bovine serum albumin (BSA) in PBS for 1 hr at room temperature. For biopanning, phage (1×10^11 TU) from a linear decapeptide phage library diluted in 2% BSA were added to NG2-coated wells and incubated for 2 hr at room temperature. Wells were washed with PBS containing 0.1% TWEEN-20 to remove unbound phage. Bound phage were recovered by direct infection of wells with exponentially growing K91kan bacteria, followed by phage amplification overnight at 37° C. Amplified phage were then subjected to four subsequent rounds of selection on NG2-coated wells. Phage binding was quantified by counting colonies from aliquots of phage-infected bacteria removed from NG2-coated wells. Phage were sequenced from randomly selected clones as described previously (Rajotte et al., J. Clin. Invest. […]:430-437 (1998)).
To identify peptide motifs capable of interacting with NG2, the recombinant NG2 fragments were used to select phage clones from a random decapeptide phage display library. Bound phage were isolated and used for successive rounds of panning on the NG2 proteoglycan. Five successive rounds of biopanning were performed. Random clones were sequenced from rounds II to V. Sequence analysis from the final three rounds of panning are shown in Table 1. In parentheses is the number of clones displaying the same sequence. The sequences shown in column III of Table 1 are referenced as SEQ ID NOS:1-15.

NG2Δ3 [2] = test: Inhibition of phage binding to NG2Δ3-coated wells by GST-peptide fusion proteins; parameters: species or system rat; details: increasing concentrations of GST protein; for effect on binding of TAASGVRSMH-phage to NG2 coated wells: FIG. 3A; for effect on binding of LTLRWVGLMS-phage to NG2: FIG. 3B
Description: Binding of individual phage clones or an aliquot of unselected phage library control to NG2 or BSA-coated control wells was performed as described above using 1×10^9 input phage/well. For competition studies, phage incubations were performed in the presence of increasing concentrations of soluble NG2 or GST-fusion proteins.
GST-fusion proteins containing the decapeptide inserts were constructed as previously described (Rajotte et al., J. Clin. Invest. 102:430-437 (1998)). Briefly, peptide inserts were amplified by polymerase chain reaction (PCR) from the phage using specific M13 primers. PCR products were then digested with BamHI and EcoRI and inserted into the pGEX2TK vector. Fusion proteins were produced and purified according to the manufacturer's instructions (Pharmacia Biotech Inc.; Piscataway N.J.).
GST-peptide fusion proteins containing one of the two NG2-binding motifs, TAASGVRSMH (SEQ ID NO:1) or LTLRWVGLMS (SEQ ID NO:2), were tested for their ability to inhibit binding of phage to NG2Δ3-coated wells. Purified TAASGVRSMH-phage and LTLRWVGLMS-phage were incubated in NG2Δ3-coated wells in the presence of increasing concentrations of GST-TAASGVRSMH fusion protein, GST-LTLRWVGLMS fusion protein, or GST alone, and phage binding was quantified. Results shown in FIG. 3 are representative of three independent experiments and error bars show S.E.M. of the mean from triplicate platings of duplicate wells. The differences indicated by “*” are considered highly significant by student t test (p<0.01).

NG2Δ3 [3] = test: Solid-phase assay: binding of soluble NG2Δ3 to immobilized GST-peptide fusion proteins; parameters: species or system rat; details: soluble fusion protein, increasing concentrations (50 mg in FIG. 4A)
Description: Solid-phase assays were performed as described previously (Burg et al., supra, 1996). Briefly, fusion proteins (2 μg/well) were coated onto microtiter wells overnight at 4° C. Wells were blocked with 2% BSA in PBS and incubated with soluble NG2Δ3 (1 μg/well) for 2 hr at room temperature. After washing, wells were then incubated with an anti-NG2 polyclonal antibody followed by washing and incubation with an ^125I-labeled goat anti-rabbit IgG. After final washing, bound radioactivity was determined using a gamma counter. For competition studies, soluble NG2Δ3 was preincubated 15 min with increasing concentrations of soluble GST-fusion proteins prior to incubation on wells coated with GST-fusion protein.
The ability of soluble NG2 to bind to GST-TAASGVRSMH and GST-LTLRWVGLMS was tested by using a solid phase assay. Purified NG2Δ3 was incubated in wells coated with GST-TAASGVRSMH or GST-LTLRWVGLMS in the absence of inhibitor, or after preincubation with 50 mg of soluble GST-TAASGVRSMH, GST-LTLRWVGLMS or GST alone. Binding of NG2Δ3 was determined, and the results shown in FIG. 4 are representative of three independent experiments. Error bars show S.E.M. of the mean from triplicate wells. The differences indicated by “*” are considered significant by student t test (p<0.05). The differences indicated by “**” are considered highly significant by student t test (p<0.01).

NG2 = NG2 (Rattus norvegicus, UniProt Q00657); test: Binding of peptide to NG2 (no method given)
Chain of NG2 (Q00657 30-2326): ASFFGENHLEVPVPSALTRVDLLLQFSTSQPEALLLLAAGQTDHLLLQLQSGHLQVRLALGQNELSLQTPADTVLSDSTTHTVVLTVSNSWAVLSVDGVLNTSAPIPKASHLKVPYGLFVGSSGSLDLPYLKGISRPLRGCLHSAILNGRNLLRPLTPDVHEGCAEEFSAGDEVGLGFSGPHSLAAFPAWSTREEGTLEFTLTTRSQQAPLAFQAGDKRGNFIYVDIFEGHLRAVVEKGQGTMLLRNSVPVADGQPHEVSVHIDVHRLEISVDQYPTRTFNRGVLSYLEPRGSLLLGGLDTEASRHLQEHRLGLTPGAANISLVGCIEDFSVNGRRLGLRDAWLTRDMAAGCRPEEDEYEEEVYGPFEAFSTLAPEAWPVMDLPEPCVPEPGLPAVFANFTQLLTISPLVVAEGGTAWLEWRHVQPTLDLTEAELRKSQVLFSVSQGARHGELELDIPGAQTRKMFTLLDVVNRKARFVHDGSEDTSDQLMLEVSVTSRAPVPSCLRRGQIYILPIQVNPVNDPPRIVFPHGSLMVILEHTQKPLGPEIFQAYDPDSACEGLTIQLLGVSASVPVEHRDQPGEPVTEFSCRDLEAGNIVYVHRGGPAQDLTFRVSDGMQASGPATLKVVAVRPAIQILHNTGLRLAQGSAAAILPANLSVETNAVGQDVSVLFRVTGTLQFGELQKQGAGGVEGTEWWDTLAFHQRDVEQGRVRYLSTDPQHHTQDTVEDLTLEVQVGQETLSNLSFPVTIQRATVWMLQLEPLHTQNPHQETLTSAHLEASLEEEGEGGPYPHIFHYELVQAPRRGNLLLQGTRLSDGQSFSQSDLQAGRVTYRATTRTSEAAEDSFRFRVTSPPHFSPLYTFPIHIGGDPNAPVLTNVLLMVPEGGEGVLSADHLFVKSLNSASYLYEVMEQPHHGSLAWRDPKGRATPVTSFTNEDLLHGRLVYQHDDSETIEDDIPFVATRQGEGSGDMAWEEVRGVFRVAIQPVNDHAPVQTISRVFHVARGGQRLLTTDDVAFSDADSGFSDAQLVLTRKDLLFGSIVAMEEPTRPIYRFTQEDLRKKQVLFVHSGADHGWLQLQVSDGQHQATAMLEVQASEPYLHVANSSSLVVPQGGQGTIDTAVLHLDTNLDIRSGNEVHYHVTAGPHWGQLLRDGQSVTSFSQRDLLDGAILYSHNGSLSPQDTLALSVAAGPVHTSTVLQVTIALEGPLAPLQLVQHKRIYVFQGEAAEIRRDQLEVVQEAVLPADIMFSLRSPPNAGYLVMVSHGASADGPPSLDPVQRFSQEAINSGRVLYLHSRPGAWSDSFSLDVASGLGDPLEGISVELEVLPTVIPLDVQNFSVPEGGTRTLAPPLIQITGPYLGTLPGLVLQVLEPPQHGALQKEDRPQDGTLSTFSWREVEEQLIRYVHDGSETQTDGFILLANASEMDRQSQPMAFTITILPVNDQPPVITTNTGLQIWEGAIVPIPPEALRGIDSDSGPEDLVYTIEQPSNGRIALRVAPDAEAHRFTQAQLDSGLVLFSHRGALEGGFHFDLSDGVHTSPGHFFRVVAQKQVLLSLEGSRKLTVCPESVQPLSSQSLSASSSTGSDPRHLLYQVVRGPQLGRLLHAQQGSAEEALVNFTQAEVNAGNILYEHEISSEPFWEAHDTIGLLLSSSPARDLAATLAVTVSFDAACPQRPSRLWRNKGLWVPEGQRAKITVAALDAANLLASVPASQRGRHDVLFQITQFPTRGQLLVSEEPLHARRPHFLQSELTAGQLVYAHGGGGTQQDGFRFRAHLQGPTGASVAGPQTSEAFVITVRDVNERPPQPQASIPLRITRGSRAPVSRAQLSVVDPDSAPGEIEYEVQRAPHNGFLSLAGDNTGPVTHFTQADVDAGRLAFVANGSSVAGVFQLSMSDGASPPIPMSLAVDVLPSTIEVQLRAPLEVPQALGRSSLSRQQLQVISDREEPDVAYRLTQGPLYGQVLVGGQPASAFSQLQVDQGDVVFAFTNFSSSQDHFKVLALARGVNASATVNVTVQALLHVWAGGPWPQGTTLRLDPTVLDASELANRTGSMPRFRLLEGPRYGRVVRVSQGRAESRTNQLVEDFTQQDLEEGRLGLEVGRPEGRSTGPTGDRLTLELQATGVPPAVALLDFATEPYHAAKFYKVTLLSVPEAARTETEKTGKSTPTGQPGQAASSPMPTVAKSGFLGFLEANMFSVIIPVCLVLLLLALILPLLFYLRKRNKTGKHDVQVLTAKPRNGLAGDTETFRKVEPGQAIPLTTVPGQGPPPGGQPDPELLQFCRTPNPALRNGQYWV

Chain of recombinant fragment of rat NG2 (NG2ECΔ3) (Q00657 30-1450 limits assumed, stated change not applied): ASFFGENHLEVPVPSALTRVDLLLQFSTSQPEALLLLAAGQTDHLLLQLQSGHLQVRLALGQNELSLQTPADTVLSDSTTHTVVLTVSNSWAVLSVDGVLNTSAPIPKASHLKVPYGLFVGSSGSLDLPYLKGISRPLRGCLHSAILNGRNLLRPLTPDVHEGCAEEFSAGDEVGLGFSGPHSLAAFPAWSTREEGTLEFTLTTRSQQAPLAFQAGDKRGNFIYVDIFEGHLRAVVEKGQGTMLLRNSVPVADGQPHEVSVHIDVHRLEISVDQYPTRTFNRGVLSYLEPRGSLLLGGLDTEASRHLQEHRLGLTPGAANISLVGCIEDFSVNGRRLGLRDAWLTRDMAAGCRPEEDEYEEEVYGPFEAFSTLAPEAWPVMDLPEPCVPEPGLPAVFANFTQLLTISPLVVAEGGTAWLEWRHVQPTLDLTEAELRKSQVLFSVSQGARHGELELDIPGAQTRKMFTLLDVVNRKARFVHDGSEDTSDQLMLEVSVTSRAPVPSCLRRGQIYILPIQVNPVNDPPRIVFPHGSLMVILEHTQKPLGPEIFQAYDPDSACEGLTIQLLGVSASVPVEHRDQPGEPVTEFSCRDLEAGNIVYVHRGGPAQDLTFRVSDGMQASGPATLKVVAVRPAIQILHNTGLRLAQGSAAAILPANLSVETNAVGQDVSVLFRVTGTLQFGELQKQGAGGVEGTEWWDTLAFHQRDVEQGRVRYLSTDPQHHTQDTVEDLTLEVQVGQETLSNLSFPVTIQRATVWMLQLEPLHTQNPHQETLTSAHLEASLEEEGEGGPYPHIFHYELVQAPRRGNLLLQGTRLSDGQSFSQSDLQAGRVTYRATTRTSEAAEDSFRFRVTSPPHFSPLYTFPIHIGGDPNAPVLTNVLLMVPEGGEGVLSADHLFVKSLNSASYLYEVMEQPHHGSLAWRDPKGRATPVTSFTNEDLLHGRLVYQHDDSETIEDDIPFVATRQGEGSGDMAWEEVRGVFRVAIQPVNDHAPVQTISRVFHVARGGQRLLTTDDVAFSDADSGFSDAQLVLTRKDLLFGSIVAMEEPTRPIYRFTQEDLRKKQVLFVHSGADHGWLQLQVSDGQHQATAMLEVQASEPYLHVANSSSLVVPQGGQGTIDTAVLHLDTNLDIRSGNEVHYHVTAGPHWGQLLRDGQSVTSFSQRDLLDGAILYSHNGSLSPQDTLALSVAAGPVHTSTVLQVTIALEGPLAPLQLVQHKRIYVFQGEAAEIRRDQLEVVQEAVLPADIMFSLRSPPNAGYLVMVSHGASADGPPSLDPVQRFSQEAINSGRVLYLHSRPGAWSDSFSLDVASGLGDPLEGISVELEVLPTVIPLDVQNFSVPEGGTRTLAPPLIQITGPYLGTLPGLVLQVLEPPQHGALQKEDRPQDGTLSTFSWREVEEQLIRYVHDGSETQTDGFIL
Chain of NG2Δ3 (Q00657 30-1450 limits assumed, stated change not applied): as above

LTLRWVGLMS
selection/enrichment of NG2-binding sequences in in vitro panning [1]: specifically enriched in later rounds of in vitro panning
number of clones displaying the same sequence ([1]; panning round IV): LTLRWVGLMS (10)
number of clones displaying the same sequence ([1]; panning round V): LTLRWVGLMS (SEQ ID NO: 2) (7)

GST-LTLRWVGLMS: GST-fusion protein containing the decapeptide insert LTLRWVGLMS ({GST}-LTLRWVGLMS)
effect on binding of TAASGVRSMH-phage to NG2 coated wells (NG2Δ3 [2]): inhibited
effect on binding of LTLRWVGLMS-phage to NG2 (NG2Δ3 [2]): inhibited the binding
effect of preincubation on binding of NG2 to wells coated with GST-TAASGVRSMH (NG2Δ3 [3]): inhibited binding

CLSGSLSC
binding to NG2 (NG2): found to bind to NG2

GGGTRAGMKY
number of clones displaying the same sequence ([1]; panning round III): GGGTRAGMKY (SEQ ID NO: 3) (2)

GST-TAASGVRSMH: GST-fusion protein containing the decapeptide insert TAASGVRSMH ({GST}-TAASGVRSMH)
effect on binding of TAASGVRSMH-phage to NG2 coated wells (NG2Δ3 [2]): dose-dependent decrease in binding
effect on binding of LTLRWVGLMS-phage to NG2 (NG2Δ3 [2]): inhibited the binding
effect of preincubation on binding of NG2 to wells coated with GST-TAASGVRSMH (NG2Δ3 [3]): dose-dependent decrease in binding

control GST protein: control GST protein containing no peptide insert [reference compound]
effect on binding of TAASGVRSMH-phage to NG2 coated wells (NG2Δ3 [2]): little effect on binding
effect on binding of LTLRWVGLMS-phage to NG2 (NG2Δ3 [2]): no significant effect on the binding

TAASGVRSMH
selection/enrichment of NG2-binding sequences in in vitro panning [1]: specifically enriched in later rounds of in vitro panning
number of clones displaying the same sequence ([1]; panning round IV): TAASGVRSMH (16)
number of clones displaying the same sequence ([1]; panning round V): TAASGVRSMH (SEQ ID NO: 1) (8)

— patent US6528481B1, “NG2/HM proteoglycan-binding peptides that home to angiogenic vasculature and related methods” (The Burnam Institute, priority 1999, dated 2003)
